The values below come from US11224609B2, “Mithramycin derivatives having increased selectivity and anti-cancer activity” (University of Kentucky Research Foundation, priority 2017, dated 2022).

Experiment [1] deals with TC-71 Ewing sarcoma cells (EWS-FLI1 Type 1). The following applies: 72 h growth inhibition.
Experiment [2] deals with ES-7 Ewing sarcoma cells (EWS-FLI1 Type 4). Description: 72 h GI50 assay in ES-7. The following applies: read-out: ES-7 EWS-FLI1 Type 4 GI50; 72 h growth inhibition.
The next experiment relates to LNCaP cells. Nature of the experiment: 72 h GI50 assay in LNCaP. Particulars: read-out: LNCaP GI50; 72 h growth inhibition.
The next experiment deals with DMS 114 cells. Description: 72 h GI50 assay in DMS 114. Particulars: read-out: DMS 114 GI50; 72 h growth inhibition.
The test system of experiment [3] is ES-8 Ewing sarcoma cells (EWS-FLI1 Type 2). Description: 72 h GI50 assay in ES-8. The following applies: read-out: ES-8 EWS-FLI1 Type 2 GI50; 72 h growth inhibition.
The subject of another experiment is A549 cells. Nature of the experiment: 72 h GI50 assay in A549. Particulars: read-out: A549 GI50; 72 h growth inhibition.
For experiment [4], the system named is PC-3 (prostate cancer, no ETS translocation) cell line. Nature of the experiment: 72 h growth inhibition (GI50) assay in PC-3. The following applies: read-out: PC-3 Prostate cancer No ETS Translocation GI50; 72 h growth inhibition, PC-3 cells.
In another experiment the test system is DU 145 cells. Description: 72 h GI50 assay in DU 145. The following applies: read-out: DU 145 GI50; 72 h growth inhibition.

Molecules are shown by their SMILES.

On to `COC(=O)C(Cc1c[nH]c2ccccc12)NC(=O)C(Cc1ccccc1)NC(=O)C(OC)C1Cc2cc3cc(OC4CC(OC5CC(O)C(O)C(C)O5)C(O)C(C)O4)c(C)c(O)c3c(O)c2C(=O)C1OC1CC(OC2CC(OC3CC(C)(O)C(O)C(C)O3)C(O)C(C)O2)C(O)C(C)O1` (stereo not shown) [Analogue 60, MTMSA-Phe-Trp], for which the “TC-71 EWS-FLI1 Type 1 GI50” value in experiment [1] was found to be 44 nM. Also, the concentration for 50% growth inhibition (GI50) (in general, the concentration giving 50% growth inhibition) in experiment [2] is 46 nM; in the experiment with LNCaP cells, 1610 nM; with DMS 114 cells it was 1140 nM; in experiment [3] it was 53 nM; in the experiment with A549 cells it was 2850 nM; in experiment [4] it was 1130 nM. Besides, the 50% growth inhibitory concentration (GI50) with DU 145 cells was found to be 400 nM.
Consider `COC(=O)C(Cc1c[nH]c2ccccc12)NC(=O)C(Cc1c[nH]c2ccccc12)NC(=O)C(OC)C1Cc2cc3cc(OC4CC(OC5CC(O)C(O)C(C)O5)C(O)C(C)O4)c(C)c(O)c3c(O)c2C(=O)C1OC1CC(OC2CC(OC3CC(C)(O)C(O)C(C)O3)C(O)C(C)O2)C(O)C(C)O1` (stereo not shown) [Analogue 61, MTMSA-Trp-Trp], for which the “TC-71 EWS-FLI1 Type 1 GI50” value in experiment [1] came to 35 nM. The concentration for 50% growth inhibition (GI50) in experiment [2] turned out to be 48 nM; in the experiment with LNCaP cells it was 856 nM; in the experiment on DMS 114 cells it was 1120 nM; in experiment [3] it was 114 nM; in the experiment on A549 cells, 1400 nM; in experiment [4], 568 nM. For the same compound, the concentration for 50% growth inhibition (GI50) in the experiment with DU 145 cells turned out to be 246 nM.
